PubChem BioAssay (NCI)
Values joined by “and” are separate entries in the source; they are usually repeats but may differ in a detail not shown here. Equal values may be shown once.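 1) Cells in 96-well plates. 2) Compound, 48 h, 5 concentrations. 3) Linear interpolation between surrounding doses. 4) Unreached endpoint = highest concentration. Here, GI50 denotes the concentration required for 50% inhibition of growth. TGI denotes the concentration required for complete inhibition of growth.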

Tests used:
Assay in all cases: NCI tumour cell line growth inhibition, 48 h
SNB-78 CNS = system: SNB-78 CNS
DMS 273 small cell lung = system: DMS 273 small cell lung
HOP-18 NSCLC = system: HOP-18 NSCLC
KM20L2 colon = system: KM20L2 colon
LXFL 529 NSCLC = system: LXFL 529 NSCLC
MDA-N = system: MDA-N
XF 498 CNS = system: XF 498 CNS
DMS 114 small cell lung = system: DMS 114 small cell lung
RXF-631 renal = system: RXF-631 renal
SN12K1 renal = system: SN12K1 renal
P388/ADR leukemia = system: P388/ADR leukemia
P388 leukemia = system: P388 leukemia

| SMILES | TGI (SNB-78 CNS) | TGI (DMS 273 small cell lung) | TGI (HOP-18 NSCLC) [µM] | TGI (KM20L2 colon) [µM] | TGI (LXFL 529 NSCLC) [µM] | TGI (MDA-N) | TGI (XF 498 CNS) [µM] | TGI (DMS 114 small cell lung) [µM] | other results |
| --- | --- | --- | --- | --- | --- | --- | --- | --- | --- |
| COC(=O)/C(=N\NC(=O)C[N+](C)(C)C)C(C(=O)OC)C(=O)C(=O)Nc1ccccc1C(N)=O (stereo not drawn) | > 100 µM | > 100 µM | > 100 | > 100 | > 100 | – | – | – | – |
| C#CC1(O)C(COP(=O)(O)OC(COCCCCCCCCCCCCCCCCCC)COP(=O)(O)OCC2OC(n3cc(F)c(=O)[nH]c3=O)CC2O)OC(n2ccc(N)nc2=O)C1O (stereo not drawn) | – | – | – | – | – | 12.4 µM and 13.7 µM | – | – | – |
| O=c1cc(-c2ccccc2F)[nH]c2ccc(N3CCCC3)cc12 | – | – | – | – | – | – | – | – | GI50 (MDA-N): < 0.001 µM |
| O=c1[nH]nc2ccccc2c1Cc1ccccc1 | > 100 µM | > 100 µM | > 100 | > 100 | – | – | > 100 | > 100 | – |
| Clc1ccc(N=Nc2nc3ccccc3nc2N=Nc2ccc(Cl)cc2Cl)c(Cl)c1 | > 100 µM | – | – | > 100 | > 100 | – | > 100 | > 100 | – |
| c1ccc(C(c2ccccc2)c2cccnc2)cc1 | > 100 µM | > 100 µM | > 100 | > 100 | – | – | – | > 100 | TGI (RXF-631 renal): > 100 µM |
| Cc1ccc(SSc2ccc(C)cc2C(=O)O)c(C(=O)O)c1 | > 100 µM | > 100 µM | – | > 100 | > 100 | – | – | – | TGI (RXF-631 renal): > 100 µM |
| COc1cc([C@@H]2c3cc4c(cc3[C@@H](OC(=O)c3ccc(N)cc3)C3COC(=O)[C@@H]32)OCO4)cc(OC)c1O (stereo partly drawn) | > 95 µM | 61.9 µM | > 95 | 3.57 | > 95 | – | – | – | TGI (RXF-631 renal): 42 µM |
| c1cc2n(n1)CCN2 | > 8740 µM | 2440 µM | > 10000 | > 10000 | – | > 10000 µM | 6960 | > 8170 | TGI (SN12K1 renal): 5980 µM; TGI (P388/ADR leukemia): 4830 µM; TGI (P388 leukemia): 2770 µM |
| O=C(O)c1cc2ccc3ccccc3c2oc1=O | – | – | – | – | – | > 100 µM | – | – | – |
| C[C@]12CCC(=O)C=C1CC[C@@H]1C2CC[C@]2(C)Nc3c(cnn3-c3ccccc3)CC12 (stereo partly drawn) | > 100 µM | > 100 µM | – | > 100 | > 100 | – | > 100 | > 100 | TGI (RXF-631 renal): > 100 µM |
| COCC(O)Cn1ccnc1[N+](=O)[O-] (stereo not drawn) | > 100 µM | > 100 µM | – | > 100 | – | – | > 100 | > 100 | – |
| CC1OC(OC2C[C@](O)(C(=O)CF)Cc3c(O)c4c(c(O)c32)C(=O)c2ccccc2C4=O)CC(N)C1O (stereo partly drawn) | 3.53 µM | 0.104 µM | – | 0.353 | 1.27 | 0.333 µM | 0.389 | 0.142 | – |
| CCOC1=C2C(=O)OC(=O)C2C2CCCCC2=C1 (stereo not drawn) | > 100 µM | > 100 µM | – | – | > 100 | – | > 100 | > 100 | – |
| CC(C)CCCC(C)[C@H]1CCC2[C@@H]3CCC4Nc5nocc5C[C@]4(C)C3CC[C@@]21C (stereo partly drawn) | 42.1 µM | 37.3 µM | 34.7 | 41.7 | 27.3 | – | – | – | – |
| OCC1C(/C=C/c2ccoc2)ON2CCCC12 (stereo not drawn) | > 100 µM | > 100 µM | 86 | > 100 | > 100 | – | > 100 | – | – |
| O=C1NC2(CCCCCC2)C2CCCCCCC12O (stereo not drawn) | > 100 µM | > 100 µM | > 100 | – | > 100 | – | > 100 | > 100 | – |
| OCC(O)C(Cl)CCl (stereo not drawn) | – | – | – | – | – | > 100 µM | – | – | – |
| COc1cc2ccccc2oc1=O | – | – | – | – | – | > 100 µM | – | – | – |

| SMILES | TGI (SNB-78 CNS) | TGI (DMS 273 small cell lung) | TGI (HOP-18 NSCLC) [µM] | TGI (KM20L2 colon) [µM] | TGI (LXFL 529 NSCLC) [µM] | TGI (MDA-N) | TGI (XF 498 CNS) [µM] | TGI (DMS 114 small cell lung) [µM] | other results |
| --- | --- | --- | --- | --- | --- | --- | --- | --- | --- |
| C=CCNC(=O)N(CCCC(NC(C)=O)C(=O)NCc1ccccc1)Cc1ccccc1 (stereo not drawn) | – | > 100 µM | > 100 | > 100 | > 100 | – | > 100 | > 100 | – |
| COC(=O)c1ccccc1OCc1cc(=O)oc2ccc(C)cc12 | – | > 100 µM | – | > 100 | > 100 | > 100 µM | 90.4 | > 100 | TGI (RXF-631 renal): > 100 µM |
| O=C(O)C1OC1(c1cccc(Cl)c1)c1ccccc1Cl (stereo not drawn) | – | – | – | – | – | 65.6 µM | – | – | – |
| O=C(NC(=O)c1cn(CCN(CCO)C(=O)NCCCCCCNC(=O)N(CCO)CCn2cc(C(=O)NC(=O)OCc3ccccc3)c(=O)[nH]c2=O)c(=O)[nH]c1=O)OCc1ccccc1 | > 100 µM | > 100 µM | > 100 | > 100 | – | – | > 100 | > 100 | TGI (RXF-631 renal): > 100 µM |
| O=c1c2ccccc2c(=O)n2n1CC=CC2 | > 100 µM | > 100 µM | > 100 | > 100 | > 100 | – | – | > 100 | – |
| COc1ccc2c(c1)[n+]([O-])c(-c1ccc(OC)c(OC)c1)c(N)[n+]2[O-] | > 100 µM | > 100 µM | > 100 | > 100 | > 100 | – | > 100 | > 100 | – |
| COc1cc2oc3cc(=O)cc4oc(-c5ccccc5)cc(c2c2c1CCC(c1ccccc1)O2)c43 (stereo not drawn) | – | – | – | – | – | > 100 µM | – | – | – |
| CCN(CC)CCOc1ccc(CCc2cc(OC)c(OC)c(OC)c2)cc1 | > 100 µM | 35.8 µM | > 100 | > 100 | > 100 | – | 57.7 | 73.8 | TGI (RXF-631 renal): > 100 µM |
| COc1cc(NC(C)CCCN)c2ncccc2c1 (stereo not drawn) | > 100 µM | > 100 µM | > 100 | > 100 | > 100 | > 82.1 µM | 73.2 | > 89 | TGI (RXF-631 renal): > 100 µM |
| COc1ccc2c(=O)cc(-c3ccncc3)oc2c1OC | – | – | – | – | – | 98.9 µM | – | – | – |
| O=C(CC(=O)C1=CNc2ccccc2S1)C(=O)Nc1ccc(Cl)cc1 | > 50 µM | > 50 µM | – | > 50 | > 50 | – | > 50 | > 50 | TGI (RXF-631 renal): > 50 µM |
| COC1OC(CBr)C(OC(=O)c2ccccc2)C(O)C1Br (stereo not drawn) | > 100 µM | > 100 µM | > 100 | > 100 | > 100 | – | > 10 | – | – |
| C1COCCN1.C1COCCN1.NC1CCCCC1N.[Cl-].[Pt+2] (stereo not drawn) | > 100 µM | – | > 100 | > 100 | > 100 | – | – | – | GI50 (SNB-78 CNS): > 100 µM; GI50 (HOP-18 NSCLC): > 100 µM; GI50 (KM20L2 colon): > 100 µM; GI50 (LXFL 529 NSCLC): > 100 µM |
| O=C1C2C3C=C4c5ccccc5N(c5ccccc5)C4(C2C(=O)N1c1ccc(Cl)cc1)[C@H]1C(=O)N(c2ccc(Cl)cc2)C(=O)[C@@H]31 (stereo partly drawn) | > 100 µM | > 100 µM | > 100 | > 100 | > 100 | – | > 100 | > 100 | TGI (RXF-631 renal): > 100 µM |
| COc1cccc2c1C(=O)c1c(O)c3c(c(O)c1C2=O)CC(O)(C(O)CO)CC3OC1CC(N2CCOCC2)C(O)C(C)O1 (stereo not drawn) | 0.0323 µM and 0.188 µM | 0.0109 µM and 0.0429 µM | 0.00797 | 0.0943 | 0.0553 | 0.1 µM | 0.0478 | – | GI50 (SNB-78 CNS): < 0.001 µM; GI50 (DMS 114 small cell lung): < 0.001 µM |
| CC(=O)NNc1nc(C)c(C(=O)/C=C/c2ccccc2Cl)s1 | > 100 µM | > 100 µM | > 100 | > 100 | – | – | – | > 100 | TGI (RXF-631 renal): > 100 µM |
| CC1CC2OC(=O)C(C)C2CC2(C)C(OC3OC(CO)C(O)C(O)C3O)OCCC12 (stereo not drawn) | – | – | – | – | – | > 100 µM | – | – | – |
| N.N.N.N.N.[Cl-].[Co+3].c1ccc(-c2nn[n-]n2)cc1 | > 100 µM | > 100 µM | > 100 | > 100 | > 100 | – | – | – | GI50 (SNB-78 CNS): > 100 µM; GI50 (DMS 273 small cell lung): > 100 µM; GI50 (HOP-18 NSCLC): 93.1 µM; GI50 (KM20L2 colon): > 100 µM; GI50 (LXFL 529 NSCLC): > 100 µM |
| O=[N+]([O-])c1ccc2c(c1)Cc1cc(N=Cc3ccc4c(c3)OCO4)ccc1-2 | – | – | – | – | – | > 100 µM | – | – | – |
